Measured values: US20100021480A1, “BIOACTIVE SUBSTANCE-BLOOD PROTEIN CONJUGATE AND STABILIZATION OF A BIOACTIVE SUBSTANCE USING THE SAME” (priority 2005, published 2010)
Read-outs that look alike come from different tables or passages of the source.

Key:
ICR female mice = assay: Blood glucose reducing activity through intraperitoneal glucose tolerance test (IPGTT); type: in vivo; details: 10 nmol
Method: Long-acting of the blood glucose reducing effect was tested in this example to determine long-acting of the blood glucose reducing activity of Compound 35 of the present invention. As control samples for determining blood glucose reducing activity and long-acting of the activity, native Exendin-4 was used, and the activity of each peptide sample was measured by intraperitoneal glucose tolerance test (IPGTT).
ICR female mice (6 weeks old, DaehanBioLink, Korea) were employed as test animals, after being adapted in lab for 7 days. Before the test, 8 mice were picked out of each group and blood was collected from tail to measure the glucose concentration in blood using glucometer (Accucheck Sensor, Roche), and then, starved for 15 to 18 hours. […] At each determined time, blood was corrected from caudal vein and the level of glucose therein was measured with glucometer. The experiments for the determination of blood glucose reducing activity and the long-acting of the activity are summarized in Table 5.
The animal test results with respect to the long-acting of blood glucose reducing effect, when Compound 35 of the present invention, and […], were measured through IPGTT, and shown in FIGS. 1 and 2. […]

activated HSA = activated HSA (Homo sapiens, UniProt P02768)
Method: Such binding degree to albumin can be simply qualitatively or quantitatively measured by an in vitro analysis using a simple HPLC.
Human serum albumin (HSA, 1 mM) solution was prepared by dissolving 66.5 mg of the activated HSA prepared in Example 3 in PBS buffer solution (pH 7.2, 1 ml). Stock solutions (1 mM) of bioactive substance Compound 15 (1.8 mg/ml) and Leuprolide (1.2 mg/ml) were respectively prepared by the same method.
The stock solutions prepared in the above method were diluted with PBS buffer so that they had the compositions shown in Table 2 below thereby to prepare sample solutions (100 μl) for determination. Then, each reaction mixture was mixed and slowly shaken in an incubator for 30 min while the temperature condition of 37° C. was kept. After incubation, methanol (150 μl) was added to each sample vial, which was then voltexed for 10 min, to precipitate HSA. The precipitated albumin was spun down by centrifugation (12,000 rpm, 10° C., 10 min.) and the supernatants (50 μl) were taken and analyzed using HPLC under the same conditions.
The degree of conjugation was examined with increasing the concentration of the bioactive substance compounds at the fixed concentration of albumin.

activated HSA, sequence (P02768 25-609): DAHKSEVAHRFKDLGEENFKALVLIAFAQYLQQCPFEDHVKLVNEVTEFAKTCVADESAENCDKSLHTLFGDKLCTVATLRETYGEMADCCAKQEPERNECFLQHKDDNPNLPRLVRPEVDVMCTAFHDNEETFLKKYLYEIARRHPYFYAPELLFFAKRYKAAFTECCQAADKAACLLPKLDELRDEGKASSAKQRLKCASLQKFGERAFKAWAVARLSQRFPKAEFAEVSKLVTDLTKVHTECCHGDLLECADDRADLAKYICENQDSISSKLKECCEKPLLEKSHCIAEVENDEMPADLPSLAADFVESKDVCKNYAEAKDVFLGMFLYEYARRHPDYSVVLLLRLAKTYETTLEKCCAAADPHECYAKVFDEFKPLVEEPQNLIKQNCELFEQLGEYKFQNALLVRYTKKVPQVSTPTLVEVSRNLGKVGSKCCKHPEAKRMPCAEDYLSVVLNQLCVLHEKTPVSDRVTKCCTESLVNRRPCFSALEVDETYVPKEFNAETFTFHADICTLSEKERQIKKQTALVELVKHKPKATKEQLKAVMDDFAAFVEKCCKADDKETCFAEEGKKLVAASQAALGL

Row | Substance | blood glucose reducing curve in IPGTT versus saline control (ICR female mice; subcutaneous once 10 hours before intraperitoneal glucose (2 g/kg)) | blood glucose reducing curve in IPGTT versus saline control (ICR female mice; subcutaneous once 24 hours before intraperitoneal glucose (2 g/kg)) | PA 20.6 min (peak area) (activated HSA; Compound 15/albumin 5/50 (μl of 1 mM stocks), PBS, 37° C., 30 min, supernatant HPLC) | PA 20.6 min/4.4M (activated HSA; Compound 15/albumin 5/50, relative to Compound 15 only) | PA 20.6 min/4.4M (activated HSA; Compound 15/albumin 10/0, Compound 15 only) | PA 20.6 min (peak area) (activated HSA; Compound 15/albumin 10/0, Compound 15 only, M: million) | PA 20.6 min (peak area) (activated HSA; Compound 15/albumin 10/50 (μl of 1 mM stocks), PBS, 37° C., 30 min, supernatant HPLC) | PA 20.6 min/4.4M (activated HSA; Compound 15/albumin 10/50, relative to Compound 15 only) | PA 20.6 min (peak area) (activated HSA; Compound 15/albumin 20/50 (μl of 1 mM stocks), PBS, 37° C., 30 min, supernatant HPLC, M: million) | PA 20.6 min/4.4M (activated HSA; Compound 15/albumin 20/50, relative to Compound 15 only) | PA 20.6 min (peak area) (activated HSA; Compound 15/albumin 40/50 (μl of 1 mM stocks), PBS, 37° C., 30 min, supernatant HPLC, M: million) | PA 20.6 min/4.4M (activated HSA; Compound 15/albumin 40/50, relative to Compound 15 only) | PA 20.6 min (peak area) (activated HSA; Compound 15/albumin 50/40 (μl of 1 mM stocks), PBS, 37° C., 30 min, supernatant HPLC, M: million) | PA 20.6 min/4.4M (activated HSA; Compound 15/albumin 50/40, relative to Compound 15 only) | PA 20.6 min (peak area) (activated HSA; Compound 15/albumin 50/50 (μl of 1 mM stocks), PBS, 37° C., 30 min, supernatant HPLC, M: million) | PA 20.6 min/4.4M (activated HSA; Compound 15/albumin 50/50, relative to Compound 15 only) | binding of Compound 15 to albumin (activated HSA; binding test of albumin and Compound 15)
1 | Exendin-4 | no significant difference | no significant difference |  |  |  |  |  |  |  |  |  |  |  |  |  |  | 
2 | Leuprolide-GSG-Lys-[ε-AEEA-CO—(CH2)2—SH]—NH2.2TFA [Compound 15] |  |  | 0 | 0 | 1.0 | 4.4M | 0 | 0 | 1.3M | 0.3 | 9.8M | 2.2 | 17.9M | 4.0 | 14.7M | 3.3 | bound
